# Assay results published in BindingDB's records for doi:10.1016/s0960-894x(97)10148-2 (Smithkline Beecham Pharmaceuticals, 1999).
# Target: T1, Low affinity immunoglobulin epsilon Fc receptor (Homo sapiens, UniProt P06734)
# T1 sequence (P06734 whole entry): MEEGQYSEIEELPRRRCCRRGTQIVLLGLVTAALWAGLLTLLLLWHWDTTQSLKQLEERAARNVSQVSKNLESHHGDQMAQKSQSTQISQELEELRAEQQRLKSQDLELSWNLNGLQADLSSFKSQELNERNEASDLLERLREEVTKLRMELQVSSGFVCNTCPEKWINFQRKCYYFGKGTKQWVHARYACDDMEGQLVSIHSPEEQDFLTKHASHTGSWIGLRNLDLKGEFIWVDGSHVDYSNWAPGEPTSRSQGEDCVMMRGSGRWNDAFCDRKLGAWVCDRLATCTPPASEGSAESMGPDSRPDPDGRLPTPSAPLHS
# Assay: (§1) Tested for inhibition against CD23 (IgE receptor) proteolysis in membranes derived from RPM18866 cells ( a human B-cell line); value ranges from 5-10
row,IC50 [µM],SMILES
1,5,O=C(C[C@H](C(=O)N[C@@H](Cc1ccccc1)C(=O)NCc1ccccc1)C1CCCCC1)NO [(S)-N*1*-((S)-1-Benzylcarbamoyl-2-phenyl-ethyl)-2-cyclohexyl-N*4*-hydroxy-succinamide]

# Target: T1, Low affinity immunoglobulin epsilon Fc receptor
# Assay: ChEBML_41676
# Text: as §1
row,IC50 [µM],SMILES
1,8,CC(C)SC[C@H](CC(=O)NO)C(=O)N[C@@H](Cc1ccccc1)C(=O)NCc1ccccc1 [(R)-N*1*-((S)-1-Benzylcarbamoyl-2-phenyl-ethyl)-N*4*-hydroxy-2-isopropylsulfanylmethyl-succinamide]
2,1,O=C(C[C@@H](Cc1ccc2ccccc2c1)C(=O)N[C@@H](Cc1ccccc1)C(=O)NCc1ccccc1)NO [(R)-N*1*-((S)-1-Benzylcarbamoyl-2-phenyl-ethyl)-N*4*-hydroxy-2-naphthalen-2-ylmethyl-succinamide]

# Target: not listed separately
# Assay: Tested for inhibition against CD23 (IgE receptor) proteolysis in membranes derived from RPM18866 cells (a human B-cell line)
row,IC50 [µM],SMILES
1,> 20,CC(C)C[C@@H](CC(=O)NO)C(=O)N[C@@H](Cc1ccccc1)C(=O)NCc1ccccc1 [(S)-N*1*-((S)-1-Benzylcarbamoyl-2-phenyl-ethyl)-N*4*-hydroxy-2-isobutyl-succinamide]
2,> 20,C[C@H](CC(=O)NO)C(=O)N[C@@H](Cc1ccccc1)C(=O)NCc1ccccc1 [(R)-N*1*-((S)-1-Benzylcarbamoyl-2-phenyl-ethyl)-N*4*-hydroxy-2-methyl-succinamide]
3,> 20,CN(C)C[C@H](CC(=O)NO)C(=O)N[C@@H](Cc1ccccc1)C(=O)NCc1ccccc1 [(S)-N*1*-((S)-1-Benzylcarbamoyl-2-phenyl-ethyl)-2-dimethylaminomethyl-N*4*-hydroxy-succinamide]
4,8,CC(C)S[C@H](CC(=O)NO)C(=O)N[C@@H](Cc1ccccc1)C(=O)NCc1ccccc1 [(R)-N*1*-((S)-1-Benzylcarbamoyl-2-phenyl-ethyl)-N*4*-hydroxy-2-isopropylsulfanyl-succinamide]
5,> 20,"O=C(C[C@@H](O)C(=O)N[C@@H](Cc1ccccc1)C(=O)NCc1ccccc1)NO [(R)-N*1*-((S)-1-Benzylcarbamoyl-2-phenyl-ethyl)-2,N*4*-dihydroxy-succinamide]"
6,> 20,O=C(CCC(=O)N[C@@H](Cc1ccccc1)C(=O)NCc1ccccc1)NO [N-((S)-1-Benzylcarbamoyl-2-phenyl-ethyl)-N'-hydroxy-succinamide]

# The next lines start with the compound.
row,SMILES,IC50 [µM]
1,O=C(C[C@H](C(=O)N[C@@H](Cc1ccccc1)C(=O)NCc1ccccc1)c1ccc(-c2ccccc2)cc1)NO [(S)-N*1*-((S)-1-Benzylcarbamoyl-2-phenyl-ethyl)-2-biphenyl-4-yl-N*4*-hydroxy-succinamide],> 20
2,NC(=O)CC[C@H](CC(=O)NO)C(=O)N[C@@H](Cc1ccccc1)C(=O)NCc1ccccc1 [(R)-3-((S)-1-Benzylcarbamoyl-2-phenyl-ethylcarbamoyl)-hexanedioic acid 6-amide 1-hydroxyamide],> 20
3,O=C(C[C@H](C(=O)N[C@@H](Cc1ccccc1)C(=O)NCc1ccccc1)c1cccc2ccccc12)NO [(S)-N*1*-((S)-1-Benzylcarbamoyl-2-phenyl-ethyl)-N*4*-hydroxy-2-naphthalen-1-yl-succinamide],> 20
4,O=C(C[C@@H](CC1CCCCC1)C(=O)N[C@@H](Cc1ccccc1)C(=O)NCc1ccccc1)NO [(R)-N*1*-((S)-1-Benzylcarbamoyl-2-phenyl-ethyl)-2-cyclohexylmethyl-N*4*-hydroxy-succinamide],3.7
5,O=C(C[C@H](C(=O)N[C@@H](Cc1ccccc1)C(=O)NCc1ccccc1)c1ccccc1)NO [(S)-N*1*-((S)-1-Benzylcarbamoyl-2-phenyl-ethyl)-N*4*-hydroxy-2-phenyl-succinamide],1.6
6,O=C(C[C@@H](CCc1ccccc1)C(=O)N[C@@H](Cc1ccccc1)C(=O)NCc1ccccc1)NO [(R)-N*1*-((S)-1-Benzylcarbamoyl-2-phenyl-ethyl)-N*4*-hydroxy-2-phenethyl-succinamide],5
7,O=C(C[C@@H](CC1CCCC1)C(=O)N[C@@H](Cc1ccccc1)C(=O)NCc1ccccc1)NO [(R)-N*1*-((S)-1-Benzylcarbamoyl-2-phenyl-ethyl)-2-cyclopentylmethyl-N*4*-hydroxy-succinamide],0.2
